This note sets out measurements from patent US10391104B2, “Application of antidepressant compound in preparation of antidepressant drugs and antidepressant health-care foods” (ZHEJIANG ACADEMY OF MEDICAL SCIENCES, priority 2015, dated 2019).

Data set [1] has as its system Male Kunming mice. Description: mouse tail suspension test. The format is in vivo. On the procedure:
(§1) Experimental method: the experiment was made using the mouse forced swimming test and tail suspension test according to the experimental methodology of pharmacology (see the description of these methods in Xu Shuyun et al. Experimental Methodology of Pharmacology. People's Medical Publishing House, 2005: 807-808) by subacute treatment (administered twice within 24 hours) and by intraperitoneal administration. The solvent control and the positive control with fluoxetine and imipramine were established in the experiment.
(§2) Administration method: totally 6 dosage groups of sarcostin were established: 0.05, 0.1, 0.25, 0.5, 1, 5 mg/kg. Male Kunming mice were randomly grouped in the experiment. All test samples were intraperitoneally administered at a volumetric dose of 0.1 mL/10 g. Administration frequency and time: test was made twice respectively in 0 and 19 h, and test was made in 24 h after the first administration. Positive control: 15 mg/kg of fluoxetine and 15 mg/kg of imipramine.

Data set [2] deals with Male Kunming mice. Description: mouse forced swimming test. It counts as in vivo. The following applies: for effect on immobility time compared with normal saline control: 15 mg/kg. How it is done:
as §1, §2

Data set [3] can be described thus: maximum dissolution amount. It counts as physicochemical. How it is done:
(§3) Experimental method: 20 clean male ICR mice were randomly divided into two groups, and fasted for 12 h before the experiment. Sarcostin was administered many times based on its maximum dissolution amount and maximum administration volume. For the oral administration group, sarcostin was prepared with ultra-pure water (maximum dissolution amount: 1.5 mg/mL), and was intragastrically administered four times in 24 hours with 0.3 ml/10 g body weight each time, and with the total dosage of 180 mg/kg. For the intraperitoneal injection group, sarcostin was prepared with normal saline (maximum dissolution amount: 1.0 mg/mL), and was intraperitoneally injected four times in 24 hours with 0.3 ml/10 g body weight each time, and with the total dosage of 120 mg/kg.

Data set [4] deals with male ICR mice. Description: preliminary acute toxicity test. It counts as in vivo, mouse. The following applies: for toxic reaction: four times in 24 h, observed 7 days; for toxic and side reaction: preliminary acute toxicity test, no doses given. How it is done: as §3
For data set [5], the system named is mice. Description: antidepressant activity test of compounds 3, 23 and derivatives. It counts as in vivo, mouse. The following applies: no doses given. On the procedure:
The solvent control and the positive control with fluoxetine and imipramine were established in the experiment.
Administration method: totally 6 dosage groups of sarcostin were established: 0.05, 0.1, 0.25, 0.5, 1, 5 mg/kg. Male Kunming mice were randomly grouped in the experiment. All test samples were intraperitoneally administered at a volumetric dose of 0.1 mL/10 g. Administration frequency and time: test was made twice respectively in 0 and 19 h, and test was made in 24 h after the first administration.

[6] abbreviates: tail suspension test, 15 mg/kg i.p., twice within 24 h (0 and 19 h), test at 24 h.
The mark [7] stands for this setting: 15 mg/kg i.p., twice within 24 h (0 and 19 h), test at 24 h.

As for `CNCCC(Oc1ccc(C(F)(F)F)cc1)c1ccccc1` (stereo not drawn) [Fluoxetine, reference compound], the “effect on immobility time compared with normal saline group” value in data set [1] (tail suspension test, 15 mg/kg) is given as “significantly reduced the immobility time”. Besides, the “Immobility time (Average value, s)” value in data set [1] (setting [6]) turned out to be 132.45 s; in data set [2] (setting [7]), 79.00 s. For the same compound, in data set [2], the “effect on immobility time compared with normal saline control” value is listed as “significantly reduced the immobility time”.
In the case of `CN(C)CCCN1c2ccccc2CCc2ccccc21` [Imipramine, reference compound], in data set [1] (tail suspension test, 15 mg/kg), the “effect on immobility time compared with normal saline group” value is listed as “significantly reduced the immobility time”. The “Immobility time (Average value, s)” value in data set [1] (setting [6]) turned out to be 155.37 s; in data set [2] (setting [7]), 92.05 s. Also, the “effect on immobility time compared with normal saline control” value in data set [2] is “significantly reduced the immobility time”.
Turning to `C[C@H](O)[C@]1(O)CC[C@@]2(O)[C@]1(C)[C@H](O)C[C@@H]1[C@@]3(C)CC[C@H](O)CC3=CC[C@]12O` [Sarcostin], the results for the maximum dissolution amount in data set [3] (normal saline) and in data set [3] (ultra-pure water) were 1.0 mg/mL and 1.5 mg/mL, respectively. The same compound showed a preferred dosage in data set [1] (tail suspension test) of 0.5 mg/kg. Moreover, the “Immobility time (Average value, s)” value in data set [1] (tail suspension test, 0.05 mg/kg i.p., twice within 24 h) turned out to be 177.94 s; in data set [1] (tail suspension test, 0.1 mg/kg i.p., twice within 24 h) it was 167.77 s; in data set [1] (tail suspension test, 0.25 mg/kg i.p., twice within 24 h), 207.60 s; in data set [1] (tail suspension test, 0.5 mg/kg i.p., twice within 24 h), 166.46 s; in data set [1] (tail suspension test, 1 mg/kg i.p., twice within 24 h), 200.99 s; in data set [1] (tail suspension test, 5 mg/kg i.p., twice within 24 h), 177.05 s. The “Immobility time (Average value, s)” value is 85.13 s in data set [2] (0.05 mg/kg i.p., twice within 24 h); 83.63 s in data set [2] (0.1 mg/kg i.p., twice within 24 h); 112.63 s in data set [2] (0.25 mg/kg i.p., twice within 24 h); 118.19 s in data set [2] (0.5 mg/kg i.p., twice within 24 h); 125.44 s in data set [2] (1 mg/kg i.p., twice within 24 h); 91.50 s in data set [2] (5 mg/kg i.p., twice within 24 h). Further, the antidepressant trend result in data set [1] (tail suspension test, 0.1, 0.5 and 0.05 mg/kg groups) is listed as “showed antidepressant trend”. Also, the “effect on immobility time compared with normal saline group” value in data set [1] (tail suspension test, all sarcostin doses) is given as “did not significantly reduce the immobility time”. The preferred dose in data set [2] was found to be 0.1 mg/kg. For the same compound, the “antidepressant activity compared with normal saline control” value in data set [2] (0.05 to 0.5 mg/kg) is given as “significant antidepressant activities”. The toxic reaction entry in data set [4] (intragastric, total 180 mg/kg) was “without obvious toxic and side reaction”; in data set [4] (intraperitoneal injection, total 120 mg/kg), “without obvious toxic and side reaction”.
As for `CC=C(C)C(=O)OC(C)C1(O)CCC2(O)C3(O)CC=C4CC(O)CCC4(C)C3CC(OC(=O)C(C)=CC)C12C` (stereo not drawn) [compound 3, 12-O-tigloyl-20-O-tigloylsarcostin], the “toxic and side reaction” value in data set [4] is “no significant toxic and side reaction”. In data set [5], the antidepressant activity result is “significant antidepressant activities”.
Regarding `CNc1ccccc1C(=O)OC1CC2C3(C)CCC(O)CC3=CCC2(O)C2(O)CCC(O)(C(C)=O)C12C` (stereo not drawn) [compound 23, 12-O-(N-methyl) anthraniloyl deacetylmetaplexigenin], the “toxic and side reaction” value in data set [4] was “no significant toxic and side reaction”. Moreover, the antidepressant activity result in data set [5] is given as “significant antidepressant activities”.
